Measurements published in patent US11873298B2, “Compounds and uses thereof” (JANSSEN PHARMACEUTICA NV, priority 2017, dated 2024).

Tests used:
SCD5 = target: T1, SCD5 (Homo sapiens, UniProt Q86SK9); experiment: Growth inhibition of humanized yeast strain expressing SCD5 as sole desaturase; type: cell-based
T1 construct: host or cells: S. cerevisiae ole1Δ strain (W303 pdr1Δ pdr3Δ background), plasmid pRS316 with TDH3 promoter and CYC1 terminator
T1 sequence (Q86SK9 1-330): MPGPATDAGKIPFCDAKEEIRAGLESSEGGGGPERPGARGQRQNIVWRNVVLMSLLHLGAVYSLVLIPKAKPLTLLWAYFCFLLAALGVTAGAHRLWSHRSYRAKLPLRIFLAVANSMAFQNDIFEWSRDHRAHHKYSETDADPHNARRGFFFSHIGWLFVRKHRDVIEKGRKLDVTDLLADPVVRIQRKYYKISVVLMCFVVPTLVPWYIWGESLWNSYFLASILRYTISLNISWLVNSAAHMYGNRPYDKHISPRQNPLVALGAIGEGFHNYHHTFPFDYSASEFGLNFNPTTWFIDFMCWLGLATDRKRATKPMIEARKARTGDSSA
Summary of the method: (§1)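 ole1Δ yeast (W303 pdr1Δ pdr3Δ background) carrying plasmid-borne Ole1, SCD1 or SCD5, grown in uracil-free media; cultures pre-grown in raffinose, seeded at 2× density 0.02 in galactose media with compound. Growth read as OD600 after 24 h at 30° C. for Ole1, 40 h for SCD1/SCD5.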

SCD1 = target: T2, SCD1 (Homo sapiens, UniProt O00767); experiment: Growth inhibition of humanized yeast strain expressing SCD1 as sole desaturase; type: cell-based
T2 construct: host or cells: S. cerevisiae ole1Δ strain (W303 pdr1Δ pdr3Δ background), plasmid pRS316 with TDH3 promoter and CYC1 terminator
T2 sequence (O00767 1-359): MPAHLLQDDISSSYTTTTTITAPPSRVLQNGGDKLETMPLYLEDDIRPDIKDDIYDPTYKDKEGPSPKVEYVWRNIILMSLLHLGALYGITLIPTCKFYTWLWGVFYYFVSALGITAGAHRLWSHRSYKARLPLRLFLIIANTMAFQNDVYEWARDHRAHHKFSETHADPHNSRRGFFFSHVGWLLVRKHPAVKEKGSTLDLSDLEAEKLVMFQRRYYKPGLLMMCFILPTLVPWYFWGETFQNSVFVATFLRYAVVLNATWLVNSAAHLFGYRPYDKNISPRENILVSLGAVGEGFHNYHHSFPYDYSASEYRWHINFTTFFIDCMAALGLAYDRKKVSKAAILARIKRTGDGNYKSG
Summary of the method: as §1

[1] = growth inhibition of humanized yeast strain expressing human SCD5
[2] = growth inhibition of humanized yeast strain expressing human SCD1
[3] = humanized yeast strain expressing SCD5
[4] = humanized yeast strain expressing SCD1

| SMILES | IC50 (SCD5; humanized yeast strain, 40 h) | IC50 (SCD1; humanized yeast strain, 40 h) | other results |
| --- | --- | --- | --- |
| CC(C)(C)OC(=O)N1CCC(c2nc(-c3ccc4cnn([C@H]5C[C@](C)(O)C5)c4c3)no2)CC1 [Compound 820] | 3.74 µM | > 45 µM |  |
| CC1(OC(=O)N2CCC(c3nc(-c4ccc5cnn(C6CCOC6)c5c4)no3)CC2)CC1 (stereo not shown) [Compound 777] | 0.01 µM | 4.16 µM |  |
| CC(C)n1ncc2c1CN(c1noc(C3CCN(C(=O)OC(C)(C)C)CC3)n1)CC2 [Compound 893] | 0.01 µM | > 45 µM |  |
| CC(C)(C)OC(=O)N1CCC(c2nc(-c3ccc4cnn(C5CS(=O)(=O)C5)c4c3)no2)CC1 [Compound 690] |  |  | IC50 (SCD5; [1]): 0.131 µM; IC50 (SCD1; [2]): > 45 µM |
| O=C1CC(n2ncc3ccc(-c4nc(N5CCn6c(Cl)cnc6C5)no4)cc32)C1 [Compound 953] | 0.01 µM | > 45 µM |  |
| Cc1nn(C)c2cc(-c3noc(C4CCN(Cc5ccccc5)C(=O)C4)n3)ccc12 (stereo not shown) [Compound 354] |  |  | IC50 (SCD5; [3]): > 45 µM; SCD5 % Max Inhibition (SCD5; [3]): 4.29%; IC50 (SCD1; [4]): > 45 µM; SCD1 % Max Inhibition (SCD1; [4]): 30.16% |
| O=C(c1ccccc1F)N1CCC(c2noc(-c3ccnc(NC4COC4)c3)n2)CC1 [Compound 1157] | > 45 µM | > 45 µM |  |
| CC(C)(C)OC(=O)N1CCC(c2nc(-c3ccc4cnn(C5CCC5)c4c3)no2)CC1 [Compound 730] |  |  | IC50 (SCD5; [1]): 0.718 µM; IC50 (SCD1; [2]): > 45 µM |
| COC(=O)N1CC2(CC(c3noc(-c4ccc5cnn(C6COC6)c5c4)n3)C2)C1 [Compound 1032] | 4.1 µM | > 45 µM |  |
| COC(=O)N1CCC(c2nc(N3CCc4cnn(C(C)C)c4C3)no2)CC1 [Compound 908] | 0.19 µM | > 45 µM |  |
| CC(C)C(=O)N1CCC(c2noc(-c3cnc4cnn(C5COC5)c4c3)n2)CC1 [Compound 1138] | 0.761 µM | > 45 µM |  |
| Cc1noc(N2CCN(c3nc(-c4ccc5cnn(C(C)C)c5c4)no3)CC2)n1 [Compound 657] |  |  | IC50 (SCD5; [1]): 9.11 µM; IC50 (SCD1; [2]): > 45 µM |
| CC(C)(C)OC(=O)N1CCC(c2nc(-c3ccn4cncc4c3)no2)CC1 [Compound 793] | > 45 µM | > 45 µM |  |
| CC(C)n1ncc2ccc(-c3nnc(C4CCN(C(=O)CC5(C)CC5)CC4)[nH]3)cc21 [Compound 691] |  |  | IC50 (SCD5; [1]): > 45 µM; IC50 (SCD1; [2]): > 45 µM |
| CC(C)n1ncc2ccc(-c3noc(N4C[C@@H]5CN(C(=O)OC(C)(C)C)C[C@H]5C4)n3)cc21 [Compound 667] |  |  | IC50 (SCD5; [1]): 0.87 µM; IC50 (SCD1; [2]): > 45 µM |
| CC(C)C(=O)N1CCC(c2noc(N3CCc4c(cnn4C4COC4)C3)n2)CC1 [Compound 1194] | > 45 µM | > 45 µM |  |
| CC(=O)NCCc1nn(C(C)C)c2cc(-c3noc(C4CCN(C(=O)OC(C)(C)C)CC4)n3)ccc12 [Compound 760] | > 45 µM | > 45 µM |  |
| CC(C)(C)OC(=O)N1CCC(c2noc(-c3cccc(N4CCOCC4)c3F)n2)CC1 [Compound 1154] | 0.0157 µM | > 45 µM |  |
| CC(C)(C)OC(=O)N1CCC(c2nc(-c3ccc4cnc(Br)n4c3)no2)CC1 [Compound 865] | 0.01 µM | > 45 µM |  |
| CNC(=O)O[C@H]1CC[C@@H](c2nc(-c3ccc4cnn(C(C)C)c4c3)no2)CC1 [Compound 647] |  |  | IC50 (SCD5; [1]): 9.37 µM; IC50 (SCD1; [2]): > 45 µM |
| COC(=O)N1CCC(c2nnc(-c3ccc4cnn(C(C)C)c4c3)o2)CC1 [Compound 852] | 5.36 µM | > 45 µM |  |
| CC(C)C(=O)N1CCC(c2noc(-c3ccnc(N4CCC(F)(F)C4)c3)n2)CC1 [Compound 1170] | 0.402 µM | > 45 µM |  |
| CC(C)(C)CC(=O)N1CCC(c2nc(-c3ccc4cnn(C5(C)COC5)c4c3)no2)CC1 [Compound 807] | 0.247 µM | > 45 µM |  |
| COCCOC(=O)N1CCC(c2noc(-c3ccc4cnn(C5COC5)c4c3)n2)CC1 [Compound 929] | 4.42 µM | > 45 µM |  |
| COC(=O)N1CCC(c2noc(-c3ccc4cnc(C5COC5)n4c3)n2)CC1 [Compound 917] | 0.1 µM | > 45 µM |  |
| Cc1nn(C)c2cc(-c3noc([C@H]4CCN(C(=O)CNC(=O)c5ccccc5)CC4(F)F)n3)ccc12 [Compound 578] |  |  | IC50 (SCD5; [3]): 1.49 µM; IC50 (SCD1; [4]): 8.46 µM |
| CC(C)(C)OC(=O)N1CCC(c2noc(-c3cccc(C4CCCO4)c3)n2)CC1 (stereo not shown) [Compound 812] | 0.01 µM | > 45 µM |  |
| O=C(CC1CC1)N1CCN(c2noc(-c3ccc4cnn(C5COC5)c4c3)n2)CC(F)(F)C1 [Compound 1035] | 0.265 µM | > 45 µM |  |
